The values that follow come from ChEMBL document CHEMBL1201862, “PubChem BioAssay data set” (2004).

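Five concentrations, 48 hours, 96-well plates. GI50 is the concentration that inhibits growth by half.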 Calls of active or inactive are those of the source. No stated cut-off is given here; in the data, active = GI50 up to about 1.1 µM and inactive = higher.

Common to all, as to experiment: inhibition of tumour cell growth, NCI panel, 48 h
Experiment [1] concerns CAKI-1.
For experiment [2], the system named is CCRF-CEM.
For experiment [3], the system named is HCT-116.
Experiment [4] has as its system HCT-15.
Experiment [5] has as its system MOLT-4.
For experiment [6], the system named is NCI-H460.
For experiment [7], the system named is NCI-H522.
Experiment [8] deals with OVCAR-3.
Experiment [9] deals with OVCAR-4.
In experiment [10] the test system is SK-MEL-5.
The test system of experiment [11] is SR.
Experiment [12] concerns TK-10.
In experiment [13] the test system is UACC-62.
Experiment [14] relates to RPMI-8226.
In experiment [15] the test system is HCC 2998.

With `O=C1c2ccccc2C(=O)N1CC#CCO`, the GI50 in [1] was > 100 µM (inactive); in experiment [2], > 100 µM (inactive); in experiment [3], > 100 µM (inactive); in experiment [4] it was greater than 100 µM; in [5] it was > 100 µM (inactive); in [6], > 100 µM (inactive). The GI50 in experiment [7], in experiment [8], in experiment [9], in [10], in [11] and in [12] was > 100 µM (inactive) each time. The GI50 in [13] was > 100 µM (inactive).
Take `O=C1OC2C(O)COC2(O)C1(O)Cc1c[nH]c2ccccc12` (stereo unspecified): the GI50 in experiment [1] is > 100 µM (inactive); in experiment [2], > 100 µM (inactive); in experiment [3] it was > 100 µM (inactive); in experiment [4], greater than 100 µM; in experiment [5], > 100 µM (inactive); in experiment [6], > 100 µM (inactive). In addition, the GI50 in experiment [7], in [8], in [9], in experiment [14], in experiment [10] and in [11] was > 100 µM (inactive) in each case. In addition, the GI50 in [12] and in experiment [13] was > 100 µM (inactive) each time.
On to `COC(=O)c1nc(NN)cc(O)c1CCCCCc1c(O)nc(NN)nc1C(=O)OC`, for which the GI50 in experiment [1] is > 100 µM (inactive); in experiment [2], > 100 µM (inactive); in experiment [15], > 100 µM (inactive); in [3] it was > 100 µM (inactive); in [4] it was greater than 100 µM; in [5], > 100 µM (inactive). The GI50 in [6] was > 100 µM (inactive); in experiment [7] it was > 100 µM (inactive); in experiment [8] it was > 100 µM (inactive); in experiment [9] it was > 100 µM (inactive); in [14], 72.4 µM (inactive); in experiment [10] it was > 100 µM (inactive). Also, the GI50 in [12] and in experiment [13] was > 100 µM (inactive) throughout.
Consider `Cc1cccc(C(C)C)c1NC(=O)C(=O)C(C(=O)c1ccccc1F)C1OC(=O)c2ccccc21` (stereo unspecified), for which the GI50 in experiment [1] is 31.5 µM (inactive); in experiment [2] it was 6.19 µM (inactive); in [15], 13.7 µM (inactive); in [3], 13.6 µM (inactive); in experiment [4], 20.5 µM; in experiment [5], 4.73 µM (inactive). Besides, the GI50 in [6] is 24.6 µM (inactive); in experiment [7] it was 13.8 µM (inactive); in experiment [8], 14.4 µM (inactive); in experiment [9], 21.8 µM (inactive); in experiment [14], 4.78 µM (inactive); in [10] it was 14.1 µM (inactive). Besides, the figures for the GI50 in experiment [12] and in experiment [13] were 39.6 µM (inactive) and 10.4 µM (inactive), respectively.
Consider `CCOC(=O)/C(=C\c1ccc(N(CCC#N)CCC#N)cc1C)NC(=O)/C=C/c1ccccc1`, for which the GI50 was > 100 µM (inactive) in experiment [1]; > 100 µM (inactive) in experiment [2]; 62.2 µM (inactive) in [15]; > 100 µM (inactive) in experiment [3]; greater than 100 µM in experiment [4]; > 100 µM (inactive) in experiment [5]. Further, the GI50 in [6], in experiment [7], in [8], in [14], in [10] and in [12] was > 100 µM (inactive) throughout. Moreover, in experiment [13], the GI50 is > 100 µM (inactive).
In the case of `CC(C)(C)/N=C\N(C=C(c1ccccc1)c1ccccc1)C1CCCCC1`, the GI50 in experiment [1] was 50.6 µM (inactive); in [2] it was 34.8 µM (inactive); in experiment [3], 23.4 µM (inactive); in experiment [4], 28.5 µM; in experiment [6] it was 38.2 µM (inactive); in experiment [8] it was 29.8 µM (inactive). For the same molecule, the GI50 in [9] is 39.4 µM (inactive); in [10] it was 16.5 µM (inactive); in experiment [11], 18 µM (inactive); in [12], 78.3 µM (inactive); in experiment [13] it was 44.1 µM (inactive).
Regarding `Cc1ccccc1NC(=O)C(=O)CC(=O)C1CCOC1=O` (stereo unspecified), the GI50 in [1] was > 100 µM (inactive); in experiment [2], > 100 µM (inactive); in experiment [15], > 100 µM (inactive); in experiment [3], > 100 µM (inactive); in [4], greater than 100 µM; in [6], > 100 µM (inactive). Besides, the GI50 in experiment [7], in experiment [8], in experiment [9], in [14], in [10] and in experiment [12] was > 100 µM (inactive) in each case. Also, in experiment [13], the GI50 is > 100 µM (inactive).
For the molecule `CCN(CC)CCC(=O)NC1c2ccccc2Oc2c(C)cccc21` (stereo unspecified), the GI50 in experiment [2] was > 100 µM (inactive); in [15] it was > 100 µM (inactive); in experiment [3], > 100 µM (inactive); in experiment [4], greater than 100 µM; in [5], > 100 µM (inactive); in [6], > 100 µM (inactive). For the same molecule, the GI50 in experiment [9], in [14], in [10], in [11], in experiment [12] and in experiment [13] was > 100 µM (inactive) each time.
Consider `N=C(N)NS(=O)(=O)c1ccc(NC(=O)c2cccc3c(Nc4ccc(S(=O)(=O)N=C(N)N)cc4)c4ccccc4nc23)cc1`, for which the GI50 in [1] is > 10 µM (inactive); in experiment [2] it was 43.9 µM (inactive); in experiment [3], 38 µM (inactive); in [4], greater than 100 µM; in experiment [5] it was 35.7 µM (inactive); in experiment [6], > 100 µM (inactive). Besides, the GI50 was 7.94 µM (inactive) in experiment [7]; 50.1 µM (inactive) in [8]; 26.6 µM (inactive) in [9]; > 100 µM (inactive) in [14]; 22.2 µM (inactive) in [10]; 52 µM (inactive) in [12]. Also, the GI50 in experiment [13] is 45.8 µM (inactive).
Turning to `CC(C)(C)[Si](Nc1ccccc1)(c1ccccc1)c1ccccc1`, the GI50 in experiment [2] is 16 µM (inactive); in experiment [15] it was 16.1 µM (inactive); in experiment [3], 7.91 µM (inactive); in experiment [4] it was 15 µM; in [5] it was 10.1 µM (inactive); in experiment [6], 18.4 µM (inactive). Also, the GI50 in experiment [7] is > 10 µM (inactive); in [8], 14.3 µM (inactive); in experiment [9], 13.9 µM (inactive); in experiment [14], 16.8 µM (inactive); in experiment [10], 17.5 µM (inactive); in experiment [12], 14.5 µM (inactive). Also, the GI50 in experiment [13] is 10.6 µM (inactive).
On to `CCOC(=O)COc1ccc(OC)c2c1C(=O)CCC2`, for which the GI50 is > 100 µM (inactive) in experiment [2]; > 100 µM (inactive) in experiment [3]; greater than 100 µM in [4]; > 100 µM (inactive) in experiment [5]; > 100 µM (inactive) in [6]; > 100 µM (inactive) in experiment [8]. The GI50 in experiment [9], in experiment [14], in experiment [10], in experiment [12] and in experiment [13] was > 100 µM (inactive) in each case.
